Measurements taken from patent EP1551873B1, “AGONISTS AND ANTAGONISTS OF THE HUMAN ODORANT RECEPTOR OR17-4 AND USES THEREOF” (Symrise AG, priority 2002, dated 2004).

Tested on: humane Spermien
Assay: Sperm chemotaxis flat capillary assay (cell density in capillary)
Assay type: cell-based, human
Procedure: Gefrorene Samenproben von fünf gesunden Spendern wurden aus der California Cryobank (Los Angeles, CA, USA) erhalten und für Bioassays gemäß den World Health Organization-Richtlinien (World Health Organization: Laboratory for the examination of human serum and semen-cervical mucus interaction, Cambridge University Press (1993)) vorbereitet. Nachdem die Suspensionen auf 37 °C für 10 Minuten gebracht worden waren, wurde jede Probe in HEPES-gepufferter humaner Tubarflüssigkeit (HTF; Irvine Scientific, Santa Ana, CA, USA) überführt und auf 10^7 Zellen/ml eingestellt. Die Lösungen wurden dann bei 37 °C in einer 5 %-igen CO2-Atmosphäre aufbewahrt und innerhalb von 30 Minuten für Experimente verwendet (P. Quinn, Journal of Assisted Reproductive Genetics 12, 97-105 (1995)). Die Reaktionen von Sperma auf Bourgeonal wurde (a) durch computer-assisted video motion analysis (CAVMA) gemessen, um Veränderungen in der Schwimmgeschwindigkeit (Spermaaktivierung) zu detektieren, und (b) in einem flat capillary-Assay für die Chemotaxis in der Nähe einer Diffusionsmaterialquelle untersucht. Für jede Test-oder Kontroll-Behandlung wurden fünf wiederholte Experimente unter Verwendung von Sperma der fünf Spender durchgeführt. Die Daten der Bioassays wurden statistisch durch Ein-Weg-Varianzanalyse (ANOVA) unter Verwendung eines post-hoc Scheffe-Tests (R. W. Day and G. P. Quinn, Ecol. Monogr. 59, 433-463 (1989)) analysiert. Eine Bonferroni-Korrektur wurde zum Angleichen der α-Levels für multiple Vergleiche verwendet.
Zur Untersuchung der Spermien-Chemotaxis wurden Kammern mit vier getrennten Kompartimenten verwendet, wobei die Kapillar-Methode von Adler (J. Adler, Science 153, 708-716 (1966); J. Adler, Journal of General Microbiology 74, 77-91 (1973)) modifiziert wurde. Jedes Kompartiment bestand aus zwei durch einen Kanal verbundenen Vertiefungen. Die Spermienproben (10^6 Zellen/ml) wurden jeweils in den Vertiefungen vorgelegt. Ein flaches 6 µl-Mikrokapillarröhrchen (Drummond Scientific Co.), das entweder Test- oder Kontrolllösung enthielt, wurde in den Kanal eingeführt, wobei seine beiden Enden die frischen Spermien-Suspensionen innerhalb der zwei Vertiefungen berührten. Nach vier Stunden Inkubation bei 37 °C wurden die Inhalte jeder Kapillare in die Vertiefung eines Toxoplasmose-Objektträgers transferiert, hitzefixiert und mit 0,1 Acridin-Orange 1 Minute lang gefärbt. Zellzählungen wurden dann unter Verwendung eines Olympus-BH2-Mikroskopes, das für Phasenkontrast- und Epifluoreszenz-Applikationen ausgerüstet war (J. A. Riffell, P. J. Krug, R. K. Zimmer, Journal of Experimental Biology 205, 1439-1450 (2002); C. C. Gee and R. K. Zimmer-Faust, Journal of Experimental Biology 200, 3185-3192 (1997)), bei 67-facher Vergrößerung durchgeführt.
Zur Bestimmung der Chemoattraktion von Spermien und des Effekts eines Antagonisten wurde Bourgeonal allein bei 10^-7 M und in Kombination mit 10^-6, 10^-7, 10^-8 oder 10^-9 M n-Undecanal getestet. Während der Durchführung der Chemotaxis-Bioassays wurde das Spermienverhalten innerhalb eines Bereiches von 300 µm vor jeder Kapillarspitze 30 Sekunden lang auf Video aufgenommen. Die Videoaufnahme begann 10 bis 15 Minuten nach dem Experimentbeginn, um die Bildung eines chemischen Gradienten zu ermöglichen. Die Spermien-Orientierung zum Gradienten hin wurde unter Verwendung von CAVMA quantifiziert. […]

SMILES | Konzentration ohne weiteren Anstieg der Zelldichte | EC50 (Homo sapiens, Sperm, 4 h, 37 °C, read-out: ED50 (Konzentration, die die halbmaximale Antwort hervorruft), Zelldichte) [nM] | Konzentrationen mit signifikanten Antworten im Verhältnis zur HTF-Kontrolle, Zelldichte (Scheffé test P ≤ 0,03) | Effekt auf das Spermienverhalten, Zelldichte (10^-7 M alone, P > 0,99) | Zelldichte als Antwort auf 10^-7 M Bourgeonal relativ zur HTF-Kontrolle (co-applied with 10^-6, 10^-7 or 10^-8 M n-Undecanal, P > 0,99)
CC(C)(C)c1ccc(CCC=O)cc1 [Bourgeonal] | > 10^-6 M | 30 | ≥ 10^-8 M | – | –
CCCCCCCCCCC=O [n-Undecanal] | – | – | – | keinen messbaren Effekt | nicht signifikant erhöht
